Data published in patent US12404279B2, “Deubiquitinase inhibitors and methods of use thereof” (Molecure S.A., priority 2021, dated 2025).
Counter-ions that a name gives are not always drawn.

Molecular target: full-length USP7 (Homo sapiens (Human), UniProt Q93009)
Assay: Enzymatic assay to determine IC50 of USP7 inhibitors (Ubiquitin-Rhodamine 110 cleavage)
Format: biochemical
Conditions: 0.5 nM USP7, 0.5 μM Ubiquitin-Rhodamine 110, 45 min at 37° C.
Summary of the method: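 Full-length USP7 (0.5 nM) in 50 mM HEPES pH 7.5, 150 mM NaCl, 1 mM DTT, 1 mg/ml BSA, 0.05% Tween20 was preincubated 15 min with DTT at room temperature before compound addition.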

full-length USP7, sequence (Q93009 whole entry): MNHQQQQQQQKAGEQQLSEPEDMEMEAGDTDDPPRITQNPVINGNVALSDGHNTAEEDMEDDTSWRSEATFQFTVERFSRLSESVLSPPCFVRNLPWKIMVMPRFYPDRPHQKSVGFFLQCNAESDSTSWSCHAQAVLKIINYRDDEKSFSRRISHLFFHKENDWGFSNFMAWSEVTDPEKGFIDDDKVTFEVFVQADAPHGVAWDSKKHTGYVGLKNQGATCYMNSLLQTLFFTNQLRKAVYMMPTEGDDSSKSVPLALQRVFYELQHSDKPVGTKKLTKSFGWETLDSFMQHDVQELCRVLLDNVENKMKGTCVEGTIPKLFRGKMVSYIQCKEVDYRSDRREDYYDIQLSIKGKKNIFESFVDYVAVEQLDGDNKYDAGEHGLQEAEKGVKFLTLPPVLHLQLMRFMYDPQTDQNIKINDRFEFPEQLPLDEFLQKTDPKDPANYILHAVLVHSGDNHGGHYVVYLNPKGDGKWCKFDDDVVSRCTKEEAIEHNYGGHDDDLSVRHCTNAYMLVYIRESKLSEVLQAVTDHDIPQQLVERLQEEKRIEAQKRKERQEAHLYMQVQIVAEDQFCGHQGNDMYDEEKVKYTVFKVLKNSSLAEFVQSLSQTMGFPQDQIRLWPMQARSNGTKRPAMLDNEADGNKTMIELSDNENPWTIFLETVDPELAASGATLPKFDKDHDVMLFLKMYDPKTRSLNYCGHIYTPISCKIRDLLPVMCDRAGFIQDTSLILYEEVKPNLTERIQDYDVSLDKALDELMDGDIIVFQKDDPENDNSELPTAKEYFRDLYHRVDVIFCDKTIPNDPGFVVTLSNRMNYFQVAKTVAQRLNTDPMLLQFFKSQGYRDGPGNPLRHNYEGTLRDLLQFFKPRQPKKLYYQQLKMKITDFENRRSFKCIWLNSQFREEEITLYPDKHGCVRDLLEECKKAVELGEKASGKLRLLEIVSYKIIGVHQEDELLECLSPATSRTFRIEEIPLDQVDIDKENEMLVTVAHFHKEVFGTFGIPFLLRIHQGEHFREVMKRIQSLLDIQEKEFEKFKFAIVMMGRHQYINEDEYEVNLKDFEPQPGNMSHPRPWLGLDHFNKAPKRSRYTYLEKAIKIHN

Molecule | IC50 [nM]
Cc1c([N+](=O)[O-])cc(-c2ccnc3cc(CN4C(=O)C5C(C4=O)C5(C)C)sc23)n1C[C@H]1CNCCO1 (stereo partly drawn) [Example 167, 6,6-dimethyl-3-((7-(5-methyl-1-(((R)-morpholin-2-yl)methyl)-4-nitro-1H-pyrrol-2-yl)thieno[3,2-b]pyridin-2-yl)methyl)-3-azabicyclo[3.1.0]hexane-2,4-dione hydrochloride] | < 500
CN[C@@H]1CN(C(=O)c2c(C)cc(C(F)(F)F)nc2-c2ccnc3cc(CN4C(=O)C5C(C4=O)C5(C)C)sc23)C[C@H]1C (stereo partly drawn) [Example 168, 6,6-dimethyl-3-((7-(4-methyl-3-((3R,4S)-3-methyl-4-(methylamino)pyrrolidine-1-carbonyl)-6-(trifluoromethyl)pyridin-2-yl)thieno[3,2-b]pyridin-2-yl)methyl)-3-azabicyclo[3.1.0]hexane-2,4-dione hydrochloride] | < 500
Cc1cc(C(F)(F)F)nc(-c2ccnc3cc(CN4C(=O)C5C(C4=O)C5(C)C)sc23)c1C(=O)N1C[C@@H](N)[C@@H](F)C1 (stereo partly drawn) [Example 169, 3-((7-(3-((3R,4S)-3-amino-4-fluoropyrrolidine-1-carbonyl)-4-methyl-6-(trifluoromethyl)pyridin-2-yl)thieno[3,2-b]pyridin-2-yl)methyl)-6,6-dimethyl-3-azabicyclo[3.1.0]hexane-2,4-dione hydrochloride] | < 500
Cc1cc(C(F)(F)F)nc(-c2ccnc3cc(CN4C(=O)C5C(C4=O)C5(C)C)sc23)c1C(=O)N1C[C@H](N)[C@@H](F)C1 (stereo partly drawn) [Example 170, 3-((7-(3-((3S,4S)-3-amino-4-fluoropyrrolidine-1-carbonyl)-4-methyl-6-(trifluoromethyl)pyridin-2-yl)thieno[3,2-b]pyridin-2-yl)methyl)-6,6-dimethyl-3-azabicyclo[3.1.0]hexane-2,4-dione hydrochloride] | < 500
Cc1cc(C(F)(F)F)nc(-c2ccnc3cc(CN4C(=O)C5C(C4=O)C5(C)C)sc23)c1C(=O)N1C[C@@H](N)C2(CC2)C1 (stereo partly drawn) [Example 173, 3-((7-(3-((S)-7-amino-5-azaspiro[2.4]heptane-5-carbonyl)-4-methyl-6-(trifluoromethyl)pyridin-2-yl)thieno[3,2-b]pyridin-2-yl)methyl)-6,6-dimethyl-3-azabicyclo[3.1.0]hexane-2,4-dione hydrochloride] | < 500
N-(2-(2-((6,6-dimethyl-2,4-dioxo-3-azabicyclo[3.1.0]hexan-3-yl)methyl)thieno[3,2-b]pyridin-7-yl)-4-methyl-6-(trifluoromethyl)pyridin-3-yl)azetidine-3-carboxamide 2,2,2-trifluoroacetate [Example 28] | < 500
ethyl 5-(2-((6,6-dimethyl-2,4-dioxo-3-azabicyclo[3.1.0]hexan-3-yl)methyl)thieno[3,2-b]pyridin-7-yl)-2-methyl-1-(((S)-morpholin-2-yl)methyl)-1H-pyrrole-3-carboxylate 2,2,2-trifluoroacetate [Example 148] | 1000 to 10000

Next, values leading:

IC50 [nM] | Molecule
< 500 | Cc1cc(Cl)cc(-c2ccnc3cc(CN4C(=O)C5C(C4=O)C5(C)C)sc23)c1NC1CCNC1 (stereo not drawn) [Example 175, 3-((7-(5-chloro-3-methyl-2-(pyrrolidin-3-ylamino)phenyl)thieno[3,2-b]pyridin-2-yl)methyl)-6,6-dimethyl-3-azabicyclo[3.1.0]hexane-2,4-dione hydrochloride]
< 500 | Cc1cc(Cl)cc(-c2ccnc3cc(CC4NCCNC4=O)sc23)c1O[C@H]1CCCNC1 (stereo partly drawn) [Example 178, 3-((7-(5-chloro-3-methyl-2-(((S)-piperidin-3-yl)oxy)phenyl)thieno[3,2-b]pyridin-2-yl)methyl)piperazin-2-one hydrochloride]
< 500 | Cc1cc(Cl)cc(-c2ccnc3cc(CC4C(=O)NCC4O)sc23)c1O[C@H]1CCCNC1 (stereo partly drawn) [Example 179, 3-((7-(5-chloro-3-methyl-2-(((S)-piperidin-3-yl)oxy)phenyl)thieno[3,2-b]pyridin-2-yl)methyl)-4-hydroxypyrrolidin-2-one 2,2,2-trifluoroacetate]

Same assay, conditions: at 1 μM of the test compound; given where IC50 not determined yet; read-out: percent value of inhibition of USP7 activity

Molecule | inhibition at 1 µM [%]
CC1(C)C2C(=O)N(Cc3cc4nccc(-c5cc(Cl)cnc5O[C@H]5CCNC5)c4s3)C(=O)C21 (stereo partly drawn) [Example 164, 3-((7-(5-chloro-2-(((S)-pyrrolidin-3-yl)oxy)pyridin-3-yl)thieno[3,2-b]pyridin-2-yl)methyl)-6,6-dimethyl-3-azabicyclo[3.1.0]hexane-2,4-dione dihydrochloride] | < 20
Cc1cc(C(F)(F)F)nc(-c2ccnc3cc(CN4C(=O)C5C(C4=O)C5(C)C)sc23)c1CC1NCCNC1=O (stereo not drawn) [Example 165, 6,6-dimethyl-3-((7-(4-methyl-3-((3-oxopiperazin-2-yl)methyl)-6-(trifluoromethyl)pyridin-2-yl)thieno[3,2-b]pyridin-2-yl)methyl)-3-azabicyclo[3.1.0]hexane-2,4-dione hydrochloride] | 20 to 49
CC1(C)C2C(=O)N(Cc3cc4nccc(-c5cc(C(F)(F)F)cnc5CC5NCCNC5=O)c4s3)C(=O)C21 (stereo not drawn) [Example 166, 6,6-dimethyl-3-((7-(2-((3-oxopiperazin-2-yl)methyl)-5-(trifluoromethyl)pyridin-3-yl)thieno[3,2-b]pyridin-2-yl)methyl)-3-azabicyclo[3.1.0]hexane-2,4-dione hydrochloride] | < 20
Cc1cc(C(F)(F)F)nc(-c2ccnc3cc(CN4C(=O)C5C(C4=O)C5(C)C)sc23)c1C(=O)N1C[C@@H](F)[C@@H](N)C1 (stereo partly drawn) [Example 171, 3-((7-(3-((3S,4R)-3-amino-4-fluoropyrrolidine-1-carbonyl)-4-methyl-6-(trifluoromethyl)pyridin-2-yl)thieno[3,2-b]pyridin-2-yl)methyl)-6,6-dimethyl-3-azabicyclo[3.1.0]hexane-2,4-dione hydrochloride] | 50 to 70
Cc1cc(C(F)(F)F)nc(-c2ccnc3cc(CN4C(=O)C5C(C4=O)C5(C)C)sc23)c1C(=O)N1C[C@@H](C)[C@H](N(C)C)C1 (stereo partly drawn) [Example 172, 3-((7-(3-((3S,4R)-3-(dimethylamino)-4-methylpyrrolidine-1-carbonyl)-4-methyl-6-(trifluoromethyl)pyridin-2-yl)thieno[3,2-b]pyridin-2-yl)methyl)-6,6-dimethyl-3-azabicyclo[3.1.0]hexane-2,4-dione hydrochloride] | > 70

Other lines, results leading:

inhibition at 1 µM [%] | Molecule
50 to 70 | CN[C@H]1CCN(C(=O)c2c(C)cc(C(F)(F)F)nc2-c2ccnc3c(F)c(CN4C(=O)C5C(C4=O)C5(C)C)sc23)C1 (stereo partly drawn) [Example 174, 3-((3-fluoro-7-(4-methyl-3-((S)-3-(methylamino)pyrrolidine-1-carbonyl)-6-(trifluoromethyl)pyridin-2-yl)thieno[3,2-b]pyridin-2-yl)methyl)-6,6-dimethyl-3-azabicyclo[3.1.0]hexane-2,4-dione hydrochloride]
< 20 | Cc1c(N)cc(-c2ccnc3cc(CN4C(=O)C5C(C4=O)C5(C)C)sc23)n1C[C@@H]1CNCCO1 (stereo partly drawn) [Example 176, 3-((7-(4-amino-5-methyl-1-(((S)-morpholin-2-yl)methyl)-1H-pyrrol-2-yl)thieno[3,2-b]pyridin-2-yl))methyl)-6,6-dimethyl-3-azabicyclo[3.1.0]hexane-2,4-dione hydrochloride]
< 20 | Cc1c(N(C)C)cc(-c2ccnc3cc(CN4C(=O)C5C(C4=O)C5(C)C)sc23)n1C[C@@H]1CNCCO1 (stereo partly drawn) [Example 177, 3-((7-(4-(dimethylamino)-5-methyl-1-(((S)-morpholin-2-yl)methyl)-1H-pyrrol-2-yl)thieno[3,2-b]pyridin-2-yl)methyl)-6,6-dimethyl-3-azabicyclo[3.1.0]hexane-2,4-dione hydrochloride]
